For one series, the system named is VEEV. The series is described as follows: microbe, parasite or virus in culture. Type of series: cell-based. The note with it: Venezuelan equine encephalitis virus, read-out: VEEV EC50.
A further series has as its system RSV. Kind of series: Antiviral activity, RSV. The format is cell-based. As to conditions: human respiratory syncytial virus.
In the next series the test system is West Nile Virus. The series is described as follows: Antiviral activity, West Nile Virus. Type of series: cell-based. As to conditions: read-out: West Nile Virus EC50.
A further series has as its system Dengue Virus. The series is described as follows: Antiviral activity, Dengue Virus. Type of series: cell-based.
Another series relates to CHIK Virus. The series is described as follows: Antiviral activity, CHIK Virus. The note with it: Chikungunya virus, read-out: CHIK Virus EC50. The format is cell-based.
Another series deals with RVFV. The series is described as follows: microbe, parasite or virus in culture. The format is cell-based. As to conditions: Rift Valley fever virus, read-out: RVFV EC50.
Another series deals with Influenza A H1N1. Kind of series: Antiviral activity, Influenza A H1N1. Type of series: cell-based.
A further series concerns Influenza B. Kind of series: Antiviral activity, Influenza B. Type of series: cell-based.
Another series deals with Influenza A H3N2. Kind of series: Antiviral activity, Influenza A H3N2. Type of series: cell-based.
The test system of a further series is SARS. The series is described as follows: microbe, parasite or virus in culture. As to conditions: Severe acute respiratory syndrome coronavirus, read-out: SARS EC50.
The next series relates to Measles. Kind of series: Antiviral activity, Measles. The format is cell-based, measles virus. The note with it: Measles morbillivirus.
Series [1] concerns Influenza A H5N1 (low path). Kind of series: microbe, parasite or virus in culture. The format is cell-based. As to conditions: H5N1, read-out: Influenza A H5N1 (low path) EC50.
The next series deals with Tacaribe Virus. Kind of series: microbe, parasite or virus in culture. Type of series: cell-based. As to conditions: Mammarenavirus tacaribeense, read-out: Tacaribe Virus EC50.
Series [2] in a line: Cytotoxicity panel, BxPC3. As to conditions: human, BxPC3 cells.
Series [3] can be described thus: Cytotoxicity panel, HepG2. The note with it: human, HepG2 cells.
The next series can be described thus: Cytotoxicity panel, A204. The format is cell-based. The note with it: human, A204 cells.
The next series in a line: Cytotoxicity panel, CEM. As to conditions: human, CEM cells, Cytotoxicity (CC50 uM) CEM.
Series [4] in a line: Cytotoxicity panel, IEC-6. The format is cell-based. As to conditions: rat, IEC-6 cells.
Series [5] deals with HCV replicon 2b (GT1b/2b NS5B chimera). Kind of series: microbe, parasite or virus in culture. The format is cell-based. As to conditions: Hepatitis C virus, read-out: EC50 (μM) 2b (GT1b/2b NS5B chimera).
A short description of series [6]: Cytotoxicity panel, Huh-7. The note with it: human, Huh-7 cells, Cytotoxicity (CC50 uM) Huh-7, Huh-7.
Series [7] has as its system HCV replicon 3a (GT1b/3a NS5B chimera). Kind of series: microbe, parasite or virus in culture. Type of series: cell-based. The note with it: Hepatitis C virus, read-out: EC50 (μM) 3a (GT1b/3a NS5B chimera).
Series [8] has as its system HCV replicon 4a (GT1b/4a NS5B chimera). Kind of series: microbe, parasite or virus in culture. As to conditions: Hepatitis C virus, read-out: EC50 (μM) 4a (GT1b/4a NS5B chimera). Type of series: cell-based.
Series [9] concerns Dengue Type 2. The series is described as follows: Anti-Dengue virus cytoprotection assay, Huh-7 cells. The note with it: Huh-7, read-out: Dengue Type 2 Huh-7 Cells (EC50 uM).
Series [10] deals with Dengue Type 2. The series is described as follows: Anti-Dengue virus cytoprotection assay, Vero cells. As to conditions: read-out: Dengue Type 2 Vero Cells (EC50 uM).
Another series concerns HepG2. The series is described as follows: Cytotoxicity panel, HepG2. The note with it: read-out: Cytotoxicity (CC50 uM) HepG2; HepG2.
Series [11] is described as follows: Toxicity in Vero cells (Dengue assay). As to conditions: African green monkey.
The nature of series [12]: Toxicity in Huh-7 cells (Dengue assay). The note with it: human, Huh-7 cells.
The test system of a further series is Huh-7 cells. The series is described as follows: Toxicity in Huh-7 cells (Dengue assay). As to conditions: read-out: CC50 uM; Cell Line Huh-7, pan-serotype Dengue table.
Another series deals with CEM. Kind of series: Cytotoxicity panel, CEM. The note with it: read-out: Cytotoxicity (CC50 uM) CEM.
Series [13] in a line: Cellular toxicity in parallel with HCV replicon assay (XTT). As to conditions: human. A general note: A replicon is a self-replicating genome or part of one, used to study replication in cells.

Like-named read-outs stand apart in the source and are kept apart here.

Take `Nc1ccn([C@@H]2O[C@H](CO)C(O)[C@@H]2F)c(=S)n1` (stereo partly drawn) [EFVX-01857]: the EC50 in the series with VEEV was greater than 100 µg/mL; in the series with RSV, greater than 100 µM; in the series with West Nile Virus, greater than 100 µg/mL; in the series with Dengue Virus, greater than 100 µg/mL; in the series with CHIK Virus it was greater than 100 µg/mL; in the series on RVFV, greater than 100 µg/mL. Also, the EC50 in the series with Influenza A H1N1 (Influenza A virus, H1N1, read-out: Influenza A H1N1 EC50) was greater than 100 µM; in the series on Influenza B (Influenza B virus; read-out: Influenza B EC50), greater than 100 µM; in the series on Influenza A H3N2 (Influenza A virus, H3N2, read-out: Influenza A H3N2 EC50), greater than 100 µM; in the series with SARS, greater than 87 µM; in the series on Measles, greater than 100 µM; in series [1], greater than 100 µM. In addition, in the series with Tacaribe Virus, the EC50 is greater than 100 µg/mL. In “in vitro”, this molecule returned a CC50 of 87 µM.
Turning to `CC(C)OP1(=O)OC[C@H]2O[C@@H](n3ccc(=O)[nH]c3=O)C(F)[C@H]2O1` (stereo partly drawn) [EFVX- 01841], the EC50 with RSV was greater than 100 µM; in the series with Influenza A H1N1 (Influenza A virus, H1N1; read-out: Influenza A H1N1 EC50), greater than 100 µM; in the series on Influenza B (Influenza B virus, read-out: Influenza B EC50), greater than 100 µM; in the series on Influenza A H3N2 (Influenza A virus, H3N2; read-out: Influenza A H3N2 EC50), greater than 100 µM; in the series with SARS it was 70 µM; in series [1], greater than 100 µM. Further, in the series “in vitro”, the CC50 was greater than 89 µM.
With `CC(C)OC(=O)[C@H](C)NP(=O)(OC[C@H]1O[C@@H](n2ccc(=S)[nH]c2=O)[C@](C)(F)C1O)Oc1ccccc1` (stereo partly drawn) [ENUC-01943-1], the CC50 was greater than 300 µM in series [2]; 199 µM in series [3]; greater than 200 µM in “Cytotoxicity panel, A204”; 136 µM in “Cytotoxicity panel, CEM”; greater than 400 µM in series [4].
For `CC(C)OC(=O)[C@H](C)N[P@](=O)(OC[C@H]1O[C@@H](n2ccc(=O)[nH]c2=S)[C@](C)(O)C1O)Oc1ccccc1` (stereo partly drawn) [ENUC-02023-1], the CC50 in series [3] was greater than 400 µM; in “Cytotoxicity panel, CEM”, greater than 400 µM; in series [6], 252 µM. Moreover, the EC50 stood at 0.0445 µM in series [5], 0.0367 µM in series [7] and 0.0254 µM in series [8].
For the molecule `CC(C)OC(=O)[C@H](C)N[P@](=O)(OC[C@H]1O[C@@H](n2ccc(=O)[nH]c2=S)[C@](C)(O)C1O)Oc1ccccc1` (stereo partly drawn) [ENUC-02023], the figures for the EC50 in the series on Dengue Type 2 [9] and in the series with Dengue Type 2 [10] were 5.62 µM and 2.35 µM, respectively. Moreover, the CC50 was greater than 400 µM in the series with HepG2, greater than 100 µM in series [11], greater than 100 µM in [12] and greater than 100 µM in the series with Huh-7 cells.
With `CC(C)OC(=O)[C@H](C)NP(=O)(OC[C@H]1O[C@@H](n2ccc(=S)[nH]c2=O)[C@@H](O)C1O)Oc1ccccc1` (stereo partly drawn) [ENUC-02071-1], the CC50 was greater than 400 µM in the series on CEM; 241 µM in “Cytotoxicity panel, CEM”; 381 µM in [6]. Also, in series [13], the CC50 at 72 h is greater than 100 µM.

The values are drawn from patent publication US11857560B2, “Pharmaceutical compositions comprising substituted nucleotides and nucleosides for treating viral infections” (priority 2013, dated 2024).
